From patent publication US20120220577A1, “GLYCINE B ANTAGONISTS” (Merz Pharma GmbH & Co KgaA, priority 2009, published 2012)

Target: NMDA receptor glycine B site (Rattus norvegicus, UniProt P35439)
Assay: Calcium FLIPR studies, rat cortical neurons (NMDA/D-Serine induced intracellular calcium)
Assay type: cell-based
Design: Primary neurons are prepared from cortices of embryonal rats at day 17 of pregnancy; endogenous in cells; host or cells: primary rat cortical neurons (E17, 11-13 DIV)
Conditions: rat cortical neurons; stimulation with 30 μM NMDA and 1 μM D-Serine; antagonist pre-incubated 10 min; read-out: NMDA-FLIPR-rCTX-NAM - IC50
In short: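 Embryonic (E17) Sprague-Dawley rat cortical neurons, 11-13 days in vitro, loaded with Calcium-4 dye (pH 7.3) and pre-incubated with antagonist (5 concentrations) for 10 min at room temperature, then stimulated with 30 μM NMDA plus 1 μM D-Serine. FLIPR AUC as percent of agonist control; IC50 by four-parameter logistic fit.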

Row | Compound | IC50
1 | O=C(COc1cc(C(=O)O)cc2cc(Cl)cc(Cl)c12)Nc1ccccc1OCc1nnn[nH]1 [Example 60, 5,7-Dichloro-4-{[2-(1H-tetrazol-5-ylmethoxy)-phenylcarbamoyl]-methoxy}-naphthalene-2-carboxylic acid] | 1.56 µM
2 | O=C(O)Cc1cccc(NC(=O)COc2cc(C(=O)O)cc3cc(Cl)cc(Cl)c23)c1 [Example 13, 4-[(3-Carboxymethylphenylcarbamoyl)-methoxy]-5,7-dichloronaphthalene-2-carboxylic acid] | 1.96 µM
3 | O=C(O)COc1ccccc1CNC(=O)COc1cc(C(=O)O)cc2cc(Cl)cc(Cl)c12 [Example 59, 4-[(2-Carboxymethoxy-benzylcarbamoyl)-methoxy]-5,7-dichloro-naphthalene-2-carboxylic acid] | 0.88 µM
4 | CN(C(=O)COc1cc(C(=O)O)cc2cc(Cl)cc(Cl)c12)c1ccccc1C(=O)O [Example 20, 4-{[(2-Carboxyphenyl)-methylcarbamoyl]-methoxy}-5,7-dichloronaphthalene-2-carboxylic acid] | 1.22 µM
5 | NCc1ccc(NC(=O)COc2cc(C(=O)O)cc3cc(Cl)cc(Cl)c23)c(OCC(=O)O)c1 [Example 34, 4-[(4-Aminomethyl-2-carboxymethoxyphenylcarbamoyl)-methoxy]-5,7-dichloronaphthalene-2-carboxylic acid] | 0.211 µM
6 | O=C(O)COc1ccccc1NC(=O)COc1cc(C(=O)O)cc2cc(Cl)cc(Cl)c12 [Example 42, 4-[(2-Carboxymethoxyphenylcarbamoyl)-methoxy]-5,7-dichloronaphthalene-2-carboxylic acid] | 0.105 µM
7 | O=C(COc1cc(C(=O)O)cc2cc(Cl)cc(Cl)c12)Nc1ccccc1CO [Example 5, 5,7-Dichloro-4-[(2-hydroxymethylphenylcarbamoyl)-methoxy]-naphthalene-2-carboxylic acid] | 7.08 µM
8 | O=C(O)COc1cc(C(=O)O)cc2cc(Cl)cc(Cl)c12 [Example 1, 4-Carboxymethoxy-5,7-dichloronaphthalene-2-carboxylic acid] | 6.2 µM
9 | O=C(COc1cc(C(=O)O)cc2cc(Cl)cc(Cl)c12)Nc1ccccc1OCC(=O)N1CCOCC1 [Example 54, 5,7-Dichloro-4-{[2-(2-morpholin-4-yl-2-oxo-ethoxy)-phenylcarbamoyl]-methoxy}-naphthalene-2-carboxylic acid] | 1.7 µM
10 | O=C(O)Cc1ccccc1NC(=O)COc1cc(C(=O)O)cc2cc(Cl)cc(Cl)c12 [Example 15, 4-[(2-Carboxymethylphenylcarbamoyl)-methoxy]-5,7-dichloronaphthalene-2-carboxylic acid] | 2.68 µM
11 | O=C(O)c1cc(OCC(=O)N2CCOc3c(CO)cccc32)c2c(Cl)cc(Cl)cc2c1 [Example 78, 5,7-Dichloro-4-[2-(8-hydroxymethyl-2,3-dihydro-benzo[1,4]oxazin-4-yl)-2-oxo-ethoxy]-naphthalene-2-carboxylic acid] | 4.13 µM
12 | O=C(O)Cc1ccc(NC(=O)COc2cc(C(=O)O)cc3cc(Cl)cc(Cl)c23)cc1 [Example 7, 4-[(4-Carboxymethylphenylcarbamoyl)-methoxy]-5,7-dichloronaphthalene-2-carboxylic acid] | 4.01 µM
13 | COCC(Oc1cc(C(=O)O)cc2cc(Cl)cc(Cl)c12)C(=O)Nc1ccccc1OC (centres unmarked) [Example 74, 5,7-Dichloro-4-[2-methoxy-1-(2-methoxy-phenylcarbamoyl)-ethoxy]-naphthalene-2-carboxylic acid] | 5.46 µM
14 | O=C(COc1cc(C(=O)O)cc2cc(Cl)cc(Cl)c12)NCc1ccccc1 [Example 18, 4-(Benzylcarbamoylmethoxy)-5,7-dichloro-naphthalene-2-carboxylic acid] | 9.56 µM
15 | O=C(COc1cc(C(=O)O)cc2cc(Cl)cc(Cl)c12)Nc1ccccc1C(=O)O [Example 3, 4-[(2-Carboxy-phenylcarbamoyl)-methoxy]-5,7-dichloro-naphthalene-2-carboxylic acid] | 3.27 µM
16 | CN(C(=O)COc1cc(C(=O)O)cc2cc(Cl)cc(Cl)c12)c1ccc(C(=O)O)cc1 [Example 14, 4-{[(4-Carboxy-phenyl)-methylcarbamoyl]-methoxy}-5,7-dichloronaphthalene-2-carboxylic acid] | 7.33 µM
17 | O=C(O)c1cc(OCC(=O)N2CCCc3ccccc32)c2c(Cl)cc(Cl)cc2c1 [Example 50, 5,7-Dichloro-4-[2-(3,4-dihydro-2H-quinolin-1-yl)-2-oxo-ethoxy]-naphthalene-2-carboxylic acid] | 7.41 µM
